# Patent US11530216B2, “Deuterated colony stimulating factor-1 receptor (CSF-1R) inhibitors” (Genzyme Corporation, priority 2020, dated 2022)
# Legend:
# [1] = tested on: iCell microglia (human iPSC derived microglia); test: CellTiter Glo 2.0 viability assay, iCell human microglia, CSF1 stimulation; type: cell-based; settings: 1.5625-200 nM, CSF1 100 ng/mL 24 hours
# Procedure: iCell microglia (human iPSC derived microglia) were acquired from FujiFilm (cat #C1110, lot #105458). These cells were thawed and maintained in iCell Microglia Complete Media according the manufacture instructions. For this assay, iCell microglia were resuspended at a concentration of 5×10^5 cells/mL and 100 μL of this cell suspension was added to the inner 60 wells of a 96-well plate. iCell microglia were allowed to rest overnight at 37° C., 5% CO2. The following evening, the media was removed and replaced with Neurobasal Media (Gibco, cat #21103049) containing B27 supplement (Gibco, cat #17504044). Again, cells were allowed to rest overnight at 37° C., 5% CO2. […] Cells were then stimulated with 100 ng/mL recombinant human CSF1 for 24 hours. After stimulation, the culture supernatant was removed from each well and aliquoted into two different 96-well plates for subsequent ELISA assays.
# Cell viability was determined using the CellTiter Glo 2.0 Luminescent Cell Viability Assay (Promega, cat #G9242). […] 100 μL was transferred from each well to a white plate and luminescence was read immediately on the FlexStation3 Multi-Mode Microplate Reader (Molecular Devices, cat #Flex3) with SoftMax Pro Software.
# iCell microglia (human iPSC derived microglia) were plated at 50,000 cells per well and rested overnight. […] Cell viability was assessed utilizing Promega's Cell Titer Glo Assay Kit. […]
# [2] = tested on: MCP-1 production in primary murine microglial cells; test: MCP-1 ELISA, primary mouse microglia after CSF-1 stimulation; type: cell-based; settings: Mus musculus, Microglia, 24 h, read-out: IC50, MCP-1 production
# Procedure: Primary mouse microglia were suspended at a concentration of 5×10^5 cells/mL and 100 μL of this cell suspension was added to the inner 60 wells of three 96-well plates. Microglia cells were allowed to rest overnight at 37° C., 5% CO2. […] Cells were then stimulated with 100 ng/mL recombinant mouse CSF-1 for 24 hours. After stimulation, the culture supernatant was removed from each well and aliquoted into two different 96-well plates for subsequent ELISA assays. Plates were fixed with 4% PFA for future immunocytochemistry analysis.
smiles,measurement,setting,value
"[2H]c1nc2cccnc2n1Cc1cc(OC)c2c(c1)O[C@@H](C)[C@H](c1ccc(OC)nc1)O2 [Compound 6, 3-(((2S,3S)-8-methoxy-2-(6-methoxypyridin-3-yl)-3-methyl-2,3-dihydrobenzo[b][1,4]dioxin-6-yl)methyl)-3H-imidazo[4,5-b]pyridine-2-d]",human microglia viability,[1],did not impact human microglia viability at the concentrations assessed
same,IC50,[2],23.2 nM
